Numbered stars: 1 amine (or outer) side, 2 acyl side, 3 side chain; on linkers, the order of the positions; unused ones are H or OH. Bridge positions count the residues as written; N and C are the ends. Square brackets hold non-standard residues; d marks the D form. Peptide text beside a SMILES is read from it. dPhe(3-Cl) = N[C@H](Cc1cccc(Cl)c1)C(=O)O; Suc = O=C(CCC(=O)[*:2])[*:1]; Nle = CCCC[C@H](N)C(=O)O; Orn = NCCC[C@H](N)C(=O)O; Dab = NCC[C@H](N)C(=O)O

hMC1r, sequence (Q01726 whole entry): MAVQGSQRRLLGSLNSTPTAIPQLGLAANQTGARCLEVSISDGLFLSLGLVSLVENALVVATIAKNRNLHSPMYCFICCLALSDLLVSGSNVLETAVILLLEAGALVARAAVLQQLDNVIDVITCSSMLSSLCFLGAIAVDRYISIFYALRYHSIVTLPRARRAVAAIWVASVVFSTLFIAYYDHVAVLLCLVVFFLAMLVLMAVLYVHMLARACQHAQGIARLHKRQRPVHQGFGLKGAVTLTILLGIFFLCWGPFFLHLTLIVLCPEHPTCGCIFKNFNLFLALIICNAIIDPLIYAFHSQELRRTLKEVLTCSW

For the test, the target named is hMC1r (Homo sapiens, UniProt Q01726). The test is described as follows: Assay for agonist activity: cAMP accumulation in HBL melanoma cells. The test is classed as cell-based. Also on record: endogenous in cells; host or cells: HBL human melanoma cells. Particulars: HBL, compared to NDP-α-MSH as 100%, read-out: MC-1 Emax (average; cAMP HBL). On the procedure:
8.2 Assay for Agonist Activity.
Confluent HBL cells that express hMC1r or HEK-293 cells that express recombinant hMC4r were detached from culture plates by incubation in enzyme-free cell dissociation buffer. Dispersed cells were suspended in Earle's Balanced Salt Solution containing 10 mM HEPES (pH 7.5), 1 mM MgCl2, 1 mM glutamine, 0.5% albumin and 0.3 mM 3-isobutyl-1-methyl-xanthine (IBMX), a phosphodiesterase inhibitor. The cells were plated in 96-well plates at a density of 0.4×10^5 cells per well for HBL cells and 0.5×10^5 cells per well for HEK-293 cells and pre-incubated for 10 minutes. Cells were exposed for 15 minutes at 37° C. to peptides of the present invention dissolved in DMSO (final DMSO concentration of 1%) at a concentration range of 0.05-5000 nM in a total assay volume of 200 μL. […] Data analysis was performed by nonlinear regression analysis with Graph-Pad Prism® software.
All results are expressed in nM except for Emax values, which are percentage values. Peptides with the captioned primary sequence were synthesized and purified as described in Section 7 above, with the resulting peptide having the structure depicted.
One may read the Emax as the size of the effect at its maximum, as opposed to the concentration needed. With `CCCC[C@H](NC(C)=O)C(=O)N[C@H]1CCNC(=O)CCC(=O)NC[C@@H](C(=O)N[C@@H](Cc2c[nH]c3ccccc23)C(N)=O)NC(=O)[C@H](CCCNC(=N)N)NC(=O)[C@@H](Cc2ccccc2)NC(=O)[C@H](Cc2c[nH]cn2)NC1=O` [Example 9.29, Ac-Nle-cyclo(Dab-His-D-Phe-Arg-Dap)-Trp-NH2], the Emax stood at 78%.
On to `CCCC[C@H](NC(C)=O)C(=O)N[C@H]1CCC(=O)NCC[C@@H](C(=O)N[C@@H](Cc2c[nH]c3ccccc23)C(N)=O)NC(=O)[C@H](CCCNC(=N)N)NC(=O)[C@@H](Cc2ccccc2)NC(=O)[C@H](CCCNC(N)=O)NC1=O` [Example 9.38, Ac-Nle-cyclo(Glu-Cit-D-Phe-Arg-Dab)-Trp-NH2], for which the maximal effect (Emax) stood at 97%.
As for `CCCC[C@H](NC(C)=O)C(=O)N[C@H]1CCC(=O)NCC[C@@H](C(N)=O)NC(=O)[C@H](C)NC(=O)[C@@H](Cc2ccccc2)NC(=O)[C@H](Cc2c[nH]cn2)NC1=O` [Example 9.33, Ac-Nle-cyclo(Glu-His-D-Phe-Ala-Dab)-NH2], the figure is 73%.
For `CCCC[C@H](NC(C)=O)C(=O)N[C@H]1CCC(=O)NCC[C@@H](C(N)=O)NC(=O)[C@H](CCCNC(=N)N)NC(=O)[C@@H](Cc2cccc(Cl)c2)NC(=O)[C@H](CCCN)NC1=O` [Example 9.58, Ac-Nle-cyclo(Glu-Orn-D-Phe(3-Cl)-Arg-Dab)-NH2] (Ac-[Nle]E[Orn][dPhe(3-Cl)]R[Dab]-NH2; lactam 2-6), the Emax was 86%.
As to `CCCC[C@H](NC(C)=O)C(=O)N[C@H]1CCC(=O)NCC[C@@H](C(=O)N[C@H](Cc2cccc3ccccc23)C(N)=O)NC(=O)[C@H](CCCNC(=N)N)NC(=O)[C@@H](Cc2ccccc2)NC(=O)[C@H](Cc2c[nH]cn2)NC1=O` [Example 9.9, Ac-Nle-cyclo(Glu-His-D-Phe-Arg-Dab)-D-Nal 1-NH2], the Emax came to 73%.
As for `CCCC(=O)N[C@H]1CCC(=O)NCC[C@@H](C(=O)N[C@@H](Cc2c[nH]c3ccccc23)C(N)=O)NC(=O)[C@H](CCCNC(=N)N)NC(=O)[C@@H](Cc2ccccc2)NC(=O)[C@H](Cc2c[nH]cn2)NC1=O` [Example 9.15, CH3—(CH2)2—C(═O)-cyclo(Glu-His-D-Phe-Arg-Dab)-Trp-NH2], the maximal response (Emax) came to 91%.
Take `N=C(N)NCCC[C@@H]1NC(=O)[C@@H](Cc2ccccc2)NC(=O)[C@H](Cc2c[nH]cn2)NC(=O)CCC(=O)NCC[C@@H](C(=O)N[C@@H](Cc2c[nH]c3ccccc23)C(N)=O)NC1=O` [Example 9.14, cyclo(Suc-His-Phe-Arg-Dab)-Trp-NH2] (H[dF]R[Dab]W-NH2; linker N-4 via Suc): the Emax turned out to be 80%.
As for `CCCC[C@H](NC(C)=O)C(=O)N[C@H]1CCC(=O)NCC[C@@H](C(N)=O)NC(=O)[C@H](CCCNC(=N)N)NC(=O)[C@@H](Cc2ccccc2)NC(=O)[C@H](CCCN)NC1=O` [Example 9.56, Ac-Nle-cyclo(Glu-Orn-D-Phe-Arg-Dab)-NH2] (Ac-[Nle]E[Orn][dF]R[Dab]-NH2; lactam 2-6), the maximal response (Emax) turned out to be 102%.
Turning to `CCCC[C@H](NC(C)=O)C(=O)N[C@H]1CCC(=O)NCC[C@@H](C(N)=O)NC(=O)[C@H](CCCNC(=N)N)NC(=O)[C@@H](Cc2ccc(OC)cc2)NC(=O)[C@H](CCCN)NC1=O` [Example 9.64, Ac-Nle-cyclo(Glu-Orn-D-Phe(4-OMe)-Arg-Dab)-NH2] (Ac-[Nle]E[Orn][dY](Me)R[Dab]-NH2; lactam 2-6), the Emax came out at 99%.
As for `CC(=O)N[C@@H](Cc1ccccc1)C(=O)N[C@H]1CCC(=O)NCC[C@@H](C(=O)N[C@@H](Cc2c[nH]c3ccccc23)C(N)=O)NC(=O)[C@H](CCCNC(=N)N)NC(=O)[C@@H](Cc2ccccc2)NC(=O)[C@H](Cc2c[nH]cn2)NC1=O` [Example 9.13, Ac-Phe-cyclo(Glu-His-D-Phe-Arg-Dab)-Trp-NH2], the figure is 75%.
With `CC(=O)N[C@H](Cc1ccccc1)C(=O)N[C@H]1CCC(=O)NCC[C@@H](C(=O)N[C@@H](Cc2c[nH]c3ccccc23)C(N)=O)NC(=O)[C@H](CCCNC(=N)N)NC(=O)[C@@H](Cc2ccccc2)NC(=O)[C@H](Cc2c[nH]cn2)NC1=O` [Example 9.12, Ac-D-Phe-cyclo(Glu-His-D-Phe-Arg-Dab)-Trp-NH2], the Emax amounted to 75%.
As for `CCCC[C@H](NC(C)=O)C(=O)N[C@H]1CCC(=O)NCC[C@@H](C(=O)N[C@@H](Cc2c[nH]c3ccccc23)C(N)=O)NC(=O)[C@H](C)NC(=O)[C@@H](Cc2ccccc2)NC(=O)[C@H](Cc2c[nH]cn2)NC1=O` [Example 9.48, Ac-Nle-cyclo(Glu-His-D-Phe-Ala-Dab)-Trp-NH2], the figure is 72%; as for `CCCC[C@H](NC(C)=O)C(=O)N[C@H]1CCC(=O)NCC[C@@H](C(=O)N[C@H](Cc2ccc3ccccc3c2)C(N)=O)NC(=O)[C@H](CCCNC(=N)N)NC(=O)[C@@H](Cc2ccccc2)NC(=O)[C@H](Cc2c[nH]cn2)NC1=O` [Example 9.11, Ac-Nle-cyclo(Glu-His-D-Phe-Arg-Dab)-D-Nal 2-NH2], 69%; as for `CCCC[C@H](NC(C)=O)C(=O)N[C@H]1CCC(=O)NCC[C@@H](C(N)=O)NC(=O)[C@H](CCCNC(=N)N)NC(=O)[C@@H](Cc2ccccc2)NC(=O)[C@@H]2CCCN2C1=O` [Example 9.65, Ac-Nle-cyclo(Glu-Pro-D-Phe-Arg-Dab)-NH2], 102%.
In the case of `CCCC[C@H](NC(C)=O)C(=O)N[C@H]1CCC(=O)NCC[C@@H](C(=O)N[C@@H](C)C(N)=O)NC(=O)[C@H](CCCNC(=N)N)NC(=O)[C@@H](Cc2ccccc2)NC(=O)[C@H](Cc2c[nH]cn2)NC1=O` [Example 9.25, Ac-Nle-cyclo(Glu-His-D-Phe-Arg-Dab)-Ala-NH2] (Ac-[Nle]EH[dF]R[Dab]A-NH2; lactam 2-6), the Emax worked out at 97%.
For the compound `N=C(N)NCCC[C@@H]1NC(=O)[C@@H](Cc2ccccc2)NC(=O)[C@H](Cc2c[nH]cn2)NC(=O)[C@@H](NC(=O)C2CC2)CCC(=O)NCC[C@@H](C(=O)N[C@@H](Cc2c[nH]c3ccccc23)C(N)=O)NC1=O` [Example 9.19, cyclo-propanoyl-cyclo(Glu-His-D-Phe-Arg-Dab)-Trp-NH2], the Emax was determined as 83%.
Regarding `N=C(N)NCCC[C@@H]1NC(=O)[C@@H](Cc2ccccc2)NC(=O)[C@H](Cc2c[nH]cn2)NC(=O)[C@@H](NC(=O)CC2CCCC2)CCC(=O)NCC[C@@H](C(=O)N[C@@H](Cc2c[nH]c3ccccc23)C(N)=O)NC1=O` [Example 9.21, cyclopentyl acetyl-cyclo(Glu-His-D-Phe-Arg-Dab)-Trp-NH2], the Emax turned out to be 83%.
As for `CCCC[C@H](NC(C)=O)C(=O)N[C@H]1CCC(=O)NCC[C@@H](C(=O)N[C@@H](CCCCN)C(N)=O)NC(=O)[C@H](CCCNC(=N)N)NC(=O)[C@@H](Cc2ccccc2)NC(=O)[C@H](Cc2c[nH]cn2)NC1=O` [Example 9.39, Ac-Nle-cyclo(Glu-His-D-Phe-Arg-Dab)-Lys-NH2], the figure is 91%; as for `CCCC[C@H](NC(C)=O)C(=O)N[C@H]1CCC(=O)NCC[C@@H](C(=O)N[C@@H](Cc2c[nH]c3ccccc23)C(N)=O)NC(=O)[C@H](CCCNC(=N)N)NC(=O)[C@H](Cc2ccccc2)NC(=O)[C@H](Cc2c[nH]cn2)NC1=O` [Example 9.8, Ac-Nle-cyclo(Glu-His-Phe-Arg-Dab)-Trp-NH2], 88%; as for `CCCC[C@H](NC(C)=O)C(=O)N[C@H]1CCNC(=O)CCC(=O)NCC[C@@H](C(=O)N[C@@H](Cc2c[nH]c3ccccc23)C(N)=O)NC(=O)[C@H](CCCNC(=N)N)NC(=O)[C@@H](Cc2ccccc2)NC(=O)[C@H](Cc2c[nH]cn2)NC1=O` [Example 9.27, Ac-Nle-cyclo(Dab-His-D-Phe-Arg-Dab)-Trp-NH2], 92%.
As for `CCCCC(=O)N[C@H]1CCC(=O)NCC[C@@H](C(=O)N[C@@H](Cc2c[nH]c3ccccc23)C(N)=O)NC(=O)[C@H](CCCNC(=N)N)NC(=O)[C@@H](Cc2ccccc2)NC(=O)[C@H](Cc2c[nH]cn2)NC1=O` [Example 9.16, CH3—(CH2)3—C(═O)-cyclo(Glu-His-D-Phe-Arg-Dab)-Trp-NH2], the figure is 89%; as for `CCCC[C@H](NC(C)=O)C(=O)N[C@H]1CCC(=O)NCC[C@@H](C(N)=O)NC(=O)[C@H](CCCNC(=N)N)NC(=O)[C@@H](Cc2ccccc2)NC(=O)[C@H](Cc2c[nH]cn2)NC1=O` [Example 9.32, Ac-Nle-cyclo(Glu-His-D-Phe-Arg-Dab)-NH2], 85%.
As for `CCCC[C@H](NC(C)=O)C(=O)N[C@H]1CCC(=O)NCC[C@@H](C(=O)N[C@@H](Cc2c[nH]c3ccccc23)C(N)=O)NC(=O)[C@H](CCCNC(=N)N)NC(=O)[C@@H](Cc2ccccc2)NC(=O)[C@H](CCCN)NC1=O` [Example 9.42, Ac-Nle-cyclo(Glu-Orn-D-Phe-Arg-Dab)-Trp-NH2], the figure is 109%; as for `CCCC[C@H](NC(C)=O)C(=O)N[C@H]1CCC(=O)NCC[C@@H](C(N)=O)NC(=O)[C@@H](Cc2ccccc2)NC(=O)[C@H](Cc2c[nH]cn2)NC1=O` [Example 9.46, Ac-Nle-cyclo(Glu-His-D-Phe-Dab)-NH2] (Ac-[Nle]EH[dF][Dab]-NH2; lactam 2-5), 51%; as for `CCCCCCC(=O)N[C@H]1CCC(=O)NCC[C@@H](C(=O)N[C@@H](Cc2c[nH]c3ccccc23)C(N)=O)NC(=O)[C@H](CCCNC(=N)N)NC(=O)[C@@H](Cc2ccccc2)NC(=O)[C@H](Cc2c[nH]cn2)NC1=O` [Example 9.18, CH3—(CH2)5—C(═O)-cyclo(Glu-His-D-Phe-Arg-Dab)-Trp-NH2], 87%.

The record behind these values is patent US20220088146A1, “Melanocortin Receptor-Specific Peptide Formulations and Methods for Gastrointestinal Tract-Specific Delivery” (Palatin Technologies, Inc., priority 2018, published 2022).
